Measurements taken from US4206215A, “Antimicrobial bis-[4-(substituted-amino)-1-pyridinium]alkanes” (Sterling Drug Inc., priority 1977, dated 1980).
Read-outs that look alike come from different tables or passages of the source.

Legend:
[1] = test system: young adult male Swiss-Webster strain albino mice; experiment: Acute oral toxicity (ALD50); format: in vivo
Procedure: (§1) The acute oral toxicity (ALD50) of several representative examples was determined as follows: Groups of 3 young adult male Swiss-Webster strain albino mice were fasted approximately 4 hours before medication and then medicated once orally by stomach tube.

[2] = Acute oral toxicity (ALD50); format: in vivo; conditions: mouse, in vivo, po, mice, read-out: 7-Day ALD50
Procedure: as §1

K. pneum. 39645 = experiment: In vitro antibacterial activity, MIC (modified Autotiter method); format: cell-based, Klebsiella pneumoniae; conditions: Klebsiella pneumoniae, 20 h, 18-20 hours at 37° C.; read-out: MIC K. pneum. 39645
How it was run: (§2)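 Inhibitory concentrations were established by automated serial twofold dilution of the test compound, starting at 1,000 mcg./ml. in solution, into sterile water, followed by inoculated semisynthetic medium (glucose, double strength); final concentrations tested: 500 to 0.06 mcg./ml.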

S. Aureus ATCC 6538 = experiment: Effect of serum on bacteriostatic activity (serial tube dilution test); format: cell-based, Staphyloccocus aureus; conditions: for Fold Increase in MIC S. Aureus ATCC 6538: 40% vs 0% horse serum; for MIC: Staphylococcus aureus, ATCC6538
S. pyogen. C203 = experiment: In vitro antibacterial activity, MIC (modified Autotiter method); format: cell-based, Streptococcus pyogenes; conditions: 18-20 hours at 37° C.; for MIC: Streptococcus pyogenes, 20 h, read-out: MIC S. pyogen. C203
How it was run: as §2

A. niger 16404 = experiment: In vitro antifungal activity, MIC (modified Autotiter method); format: cell-based, Aspergillus niger; conditions: 18-20 hours at 37° C.; for MIC: Aspergillus niger, 16404, 20 h, read-out: MIC A. niger 16404
How it was run: as §2

P. mirab. MGH-1 = experiment: In vitro antibacterial activity, MIC (modified Autotiter method); format: cell-based, Proteus mirabilis; conditions: 18-20 hours at 37° C.; for MIC: Proteus mirabilis, 20 h, read-out: MIC P. mirab. MGH-1
How it was run: as §2

[3] = 125 mg/kg oral, aqueous solution
[4] = 125 mg/kg oral, suspension in 1% G.T.
[5] = 250 mg/kg oral, aqueous solution
[6] = 250 mg/kg oral, suspension in 1% G.T.
[7] = 500 mg/kg oral, aqueous solution
[8] = 500 mg/kg oral, suspension in 1% G.T.
[9] = 1000 mg/kg oral, suspension in 1% G.T.
[10] = suspension in 1% gum tragacanth
[11] = 40% heat inactivated horse serum, read-out: MIC S. Aureus ATCC 6538 40% Serum
[12] = read-out: MIC S. Aureus ATCC 6538 0% Serum

| Structure (SMILES) | Mortality 7 Days [1, 4] | Mortality 24 Hrs [1, 4] | Mortality 7 Days [1, 6] | Mortality 24 Hrs [1, 6] | Mortality 7 Days [1, 8] | Mortality 24 Hrs [1, 8] | Mortality 7 Days [1, 9] | Mortality 24 Hrs [1, 9] | LD50 at 168 h [2, 10] [mg/kg] | MIC (K. pneum. 39645) [µg/mL] | Fold Increase in MIC S. Aureus ATCC 6538 (S. Aureus ATCC 6538) [fold] | MIC (S. Aureus ATCC 6538; [11]) [µg/mL] | MIC (S. Aureus ATCC 6538; [12]) [µg/mL] | MIC A. niger 16404 (A. niger 16404) [µg/mL] | MIC (P. mirab. MGH-1) [µg/mL] | MIC (S. pyogen. C203) [µg/mL] | MIC (A. niger 16404) [µg/mL] | other results |
| --- | --- | --- | --- | --- | --- | --- | --- | --- | --- | --- | --- | --- | --- | --- | --- | --- | --- | --- |
| CCCCCCCNc1cc[n+](CCCCCCCCCCCC[n+]2ccc(NCCCCCCC)cc2)cc1 [Example 3, 1,12-bis-[4-(heptylamino)-1-pyridinium]dodecane dibromide] | 0/3 | 0/3 | 0/3 | 0/3 | 1/3 | 0/3 | 1/3 | 1/3 | 1000 | 3.13 | 8 | 3.12 | 0.39 | 3.13 | 3.13 | – | – | Mortality 7 Days [1, 3]: 0/3; Mortality 24 Hrs [1, 3]: 0/3; Mortality 7 Days [1, 5]: 1/3; Mortality 24 Hrs [1, 5]: 1/3; Mortality 7 Days [1, 7]: 3/3; Mortality 24 Hrs [1, 7]: 2/3; LD50 at 168 h ([2]; aqueous solution): 315 mg/kg; MIC S. pyogen. C203 (S. pyogen. C203): 0.39 µg/mL |
| CCCCCCNc1cc[n+](CCCCCCCCCCCCCC[n+]2ccc(NCCCCCC)cc2)cc1 [Example 5C, 1,14-bis-[4-(hexylamino)-1-pyridinium]tetradecane dibromide] | 0/3 | 0/3 | 0/3 | 0/3 | 0/3 | 0/3 | 1/3 | 1/3 | > 1000 | 0.76 | 32 | 3.12 | 0.1 | – | – | 1 | 3 | MIC P. mirab. MGH-1 (P. mirab. MGH-1; listed as SC): 1.5 µg/mL |
| CCCCCCCCNc1cc[n+](CCCCCCCC[n+]2ccc(NCCCCCCCC)cc2)cc1 [Example 11, 1,8-bis-[4-(octylamino)-1-pyridinium]octane dibromide] | 0/3 | 0/3 | 0/3 | 0/3 | 1/3 | 0/3 | 0/3 | 0/3 | > 1000 | 1.95 | 16 | 7.8 | 0.5 | – | 7.8 | 1 | 3.9 | – |
| CCCCCCCNc1cc[n+](CCCCCCCCC[n+]2ccc(NCCCCCCC)cc2)cc1 [Example 24, 1,9-bis-[4-(heptylamino)-1-pyridinium]nonane dibromide] | 0/3 | 0/3 | 0/3 | 0/3 | 1/3 | 0/3 | 0/3 | 0/3 | > 1000 | 1.95 | 16 | 1.95 | 0.125 | – | – | 0.5 | 3.9 | MIC P. mirab. MGH-1 (P. mirab. MGH-1): 15.6 µg/mL |
| CCCCC(CC)CNc1cc[n+](CCCCCCCCCC[n+]2ccc(NCC(CC)CCCC)cc2)cc1 (stereo not drawn) [Example 58, 1,10-bis-[4-(2-ethylhexylamino)-1-pyridinium]decane dibromide] | 0/3 | 0/3 | 0/3 | 0/3 | 0/3 | 0/3 | 0/3 | 0/3 | > 1000 | 3 | 16 | 3.9 | 0.25 | 6.0 | 12.1 | 1.95 | – | – |
